# Experiments:
# [1] = target: T1, Solute carrier family 2, facilitated glucose transporter member 4 (Homo sapiens, UniProt P14672); test: Inhibition of human GLUT4 expressed in CHO cells assessed as reduction in glucose uptake by measuring decrease in ATP production preincubated for 20 mins followed by glucose addition and measured after 15 mins in presence of oxidative phosphorylation inhibitor rotenone by CellTiter-Glo Luminescent Cell Viability Assay; type: cell-based
# T1 sequence (P14672 whole entry): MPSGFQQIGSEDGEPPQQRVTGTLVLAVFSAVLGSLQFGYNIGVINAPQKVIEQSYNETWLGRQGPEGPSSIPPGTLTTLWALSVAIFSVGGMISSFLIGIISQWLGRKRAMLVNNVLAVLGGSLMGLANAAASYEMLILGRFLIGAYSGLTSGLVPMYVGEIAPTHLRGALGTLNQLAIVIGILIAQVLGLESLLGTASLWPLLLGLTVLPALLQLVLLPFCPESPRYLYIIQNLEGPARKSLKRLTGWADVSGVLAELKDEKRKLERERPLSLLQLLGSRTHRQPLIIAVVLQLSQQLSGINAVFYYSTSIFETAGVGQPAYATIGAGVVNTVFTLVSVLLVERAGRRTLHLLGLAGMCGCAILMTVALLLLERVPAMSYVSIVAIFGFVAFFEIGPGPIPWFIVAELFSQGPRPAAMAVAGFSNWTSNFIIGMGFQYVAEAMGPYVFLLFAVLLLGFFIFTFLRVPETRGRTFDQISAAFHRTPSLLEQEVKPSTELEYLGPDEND
# [2] = target: T2, Solute carrier family 2, facilitated glucose transporter member 1 (Homo sapiens, UniProt P11166); test: Inhibition of human GLUT1 expressed in human DLD-1 cells assessed as reduction in glucose uptake by measuring decrease in ATP production incubated for 15 mins in presence of oxidative phosphorylation inhibitor rotenone by CellTiter-Glo Luminescent Cell Viability Assay; type: cell-based
# T2 sequence (P11166 whole entry): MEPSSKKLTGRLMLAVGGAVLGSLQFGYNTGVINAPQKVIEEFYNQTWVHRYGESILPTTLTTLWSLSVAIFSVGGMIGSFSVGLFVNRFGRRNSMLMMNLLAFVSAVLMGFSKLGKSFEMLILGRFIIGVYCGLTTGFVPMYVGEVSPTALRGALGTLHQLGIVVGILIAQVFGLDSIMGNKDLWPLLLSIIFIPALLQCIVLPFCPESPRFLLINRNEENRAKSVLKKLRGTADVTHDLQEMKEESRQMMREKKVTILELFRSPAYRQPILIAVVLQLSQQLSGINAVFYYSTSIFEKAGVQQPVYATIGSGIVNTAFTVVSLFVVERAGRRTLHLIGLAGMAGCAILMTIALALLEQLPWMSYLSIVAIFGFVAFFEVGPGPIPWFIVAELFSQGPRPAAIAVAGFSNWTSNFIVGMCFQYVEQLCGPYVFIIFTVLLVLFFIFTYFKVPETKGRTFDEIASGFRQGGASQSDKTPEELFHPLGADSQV
# [3] = target: T3, Solute carrier family 2, facilitated glucose transporter member 3 (Homo sapiens, UniProt P11169); test: Inhibition of human GLUT3 expressed in human GLUT1-/- DLD-1 cells assessed as reduction in glucose uptake by measuring decrease in ATP production incubated for 15 mins in presence of oxidative phosphorylation inhibitor rotenone by CellTiter-Glo Luminescent Cell Viability Assay; type: cell-based
# T3 sequence (P11169 whole entry): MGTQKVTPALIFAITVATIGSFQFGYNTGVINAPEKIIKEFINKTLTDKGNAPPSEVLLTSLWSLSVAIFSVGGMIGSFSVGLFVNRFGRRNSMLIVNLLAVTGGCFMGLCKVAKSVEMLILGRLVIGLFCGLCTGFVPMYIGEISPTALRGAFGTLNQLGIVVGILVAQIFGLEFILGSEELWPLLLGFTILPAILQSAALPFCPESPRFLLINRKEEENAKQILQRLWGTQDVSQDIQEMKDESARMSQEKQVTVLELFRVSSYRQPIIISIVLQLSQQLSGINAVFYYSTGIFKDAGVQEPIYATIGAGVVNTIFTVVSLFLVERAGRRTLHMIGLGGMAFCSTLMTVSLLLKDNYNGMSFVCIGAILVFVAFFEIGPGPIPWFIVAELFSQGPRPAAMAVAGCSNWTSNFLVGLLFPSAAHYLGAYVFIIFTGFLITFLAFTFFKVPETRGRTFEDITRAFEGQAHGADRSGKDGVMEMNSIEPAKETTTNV
# [4] = Clearance in rat hepatocytes; type: ADME, cell-based, Hepatocyte
# [5] = Stability in rat hepatocytes assessed as maximum bioavailability; type: ADME, Hepatocyte; conditions: read-out: Fmax
# [6] = Stability in mouse liver microsomes assessed as maximum bioavailability; type: ADME, Microsome; conditions: read-out: Fmax
# [7] = Clearance in mouse liver microsomes; type: ADME, Microsome
# [8] = target: T4, Solute carrier family 2, facilitated glucose transporter member 2 (Homo sapiens, UniProt P11168); test: Inhibition of human GLUT2 expressed in CHO cells assessed as reduction in fructose uptake by measuring decrease in ATP production incubated for 15 mins in presence of oxidative phosphorylation inhibitor rotenone by CellTiter-Glo Luminescent Cell Viability Assay; type: cell-based
# T4 sequence (P11168 whole entry): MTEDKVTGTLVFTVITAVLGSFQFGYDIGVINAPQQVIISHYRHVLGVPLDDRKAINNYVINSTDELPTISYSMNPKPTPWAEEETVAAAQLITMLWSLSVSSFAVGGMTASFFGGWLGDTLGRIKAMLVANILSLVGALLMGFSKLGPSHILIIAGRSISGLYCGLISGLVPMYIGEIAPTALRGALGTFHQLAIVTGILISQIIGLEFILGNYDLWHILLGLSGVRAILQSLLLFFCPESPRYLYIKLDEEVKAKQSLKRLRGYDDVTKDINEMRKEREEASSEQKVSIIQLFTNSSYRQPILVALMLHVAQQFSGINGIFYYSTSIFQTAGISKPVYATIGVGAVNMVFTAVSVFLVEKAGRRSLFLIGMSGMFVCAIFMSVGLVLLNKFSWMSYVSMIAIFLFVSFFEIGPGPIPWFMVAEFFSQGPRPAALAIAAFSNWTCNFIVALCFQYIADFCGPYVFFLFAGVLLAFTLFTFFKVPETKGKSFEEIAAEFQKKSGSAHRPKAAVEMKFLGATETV
# [9] = Clearance in human liver microsomes; type: ADME, Microsome
# [10] = Stability in human liver microsomes assessed as maximum bioavailability; type: ADME, Microsome; conditions: read-out: Fmax
SMILES,IC50 [1] [nM],IC50 [2] [nM],also measured
Cc1c(NC(=O)c2cc(C(N)=O)nc3scnc23)c(C(F)(F)F)nn1Cc1ccc(C#N)cc1,280,35,
Cc1c(NC(=O)c2cc(C(N)=O)nc3cnccc23)c(C(F)(F)F)nn1Cc1ccc(C#N)cc1,61,10,
Cc1nn(-c2ccc(F)cc2)c(C)c1NC(=O)c1cc(C(F)(F)F)nc2ccc(Br)cc12,,470,
Cc1c(NC(=O)c2cc(-c3cccnc3)nc3ccccc23)c(C(F)(F)F)nn1Cc1ccc(C#N)cc1,,74,
COc1ccc2nc(C(N)=O)cc(C(=O)Nc3c(C(F)(F)F)nn(Cc4ccc(C#N)cc4)c3C)c2c1,13,,IC50 [3]: 110 nM
Cc1c(NC(=O)c2cc(C(N)=O)nc3cccc(F)c23)c(C(F)(F)F)nn1Cc1ccc(C#N)cc1,94,3,IC50 [3]: 230 nM
Cc1nn(CCc2ccc(F)cc2)c(C)c1NC(=O)c1cc(C(F)(F)F)nc2ccc(Br)cc12,340,,
Cc1c(NC(=O)c2cc(C(N)=O)nc3ccc(F)cc23)c(C(F)(F)F)nn1Cc1ccc(C#N)cc1,44,5,IC50 [3]: 290 nM
Cc1ccccc1Cn1nc(C(F)(F)F)c(NC(=O)c2cc(C(N)=O)nc3cc(F)ccc23)c1C,,7,
Cc1ccc2nc(C(N)=O)cc(C(=O)Nc3c(C(F)(F)F)nn(Cc4ccc(C#N)cc4)c3C)c2c1,120,,CLhep predicted [4]: 33.3 mL/min/kg; Fh [5]: 53%; Fh [6]: 57%; CLhep predicted [7]: 38.3 mL/min/kg
Cc1nn(Cc2ccc(F)cc2)c(C)c1N,,960,
Cc1c(NC(=O)c2cc(C(N)=O)nc3cc(F)ccc23)c(C(F)(F)F)nn1Cc1ccc(C(C)(C)C)cc1 [BAY-588],500,,IC50 [8]: > 10 µM
Cc1cccc2nc(C(N)=O)cc(C(=O)Nc3c(C(F)(F)F)nn(Cc4ccc(C#N)cc4)c3C)c12,17,18,IC50 [3]: 86 nM
Cc1c(NC(=O)c2cc(-c3ccc(F)cc3)nc3ccccc23)c(C(F)(F)F)nn1Cc1ccc(C#N)cc1,,920,
Cc1nn(Cc2ccc(C#N)cc2)c(C)c1NC(=O)c1cc(C(F)(F)F)nc2ccc(Br)cc12,,,CLhep predicted [7]: 56.7 mL/min/kg
Cc1c(NC(=O)c2cc(C(N)=O)nc3cc(F)ccc23)c(C(F)(F)F)nn1Cc1ncc(C#N)cn1,,26,CLhep predicted [4]: 14.8 mL/min/kg; Fh [5]: 79%; CLhep predicted [9]: 3.67 mL/min/kg; Fh [10]: 83%
Cc1nn(Cc2ccc(F)cc2)c(C)c1NC(=O)c1cc(C(F)(F)F)nc2ccc(Br)cc12,,,CLhep predicted [4]: 48.3 mL/min/kg; CLhep predicted [7]: 75 mL/min/kg
Cc1c(NC(=O)c2cc(C(=O)N3CC(O)C3)nc3cc(F)ccc23)c(C(F)(F)F)nn1Cc1ccc(C#N)cc1,,340,
Cc1c(NC(=O)c2cc(C(N)=O)nc3cc(F)ccc23)c(C(C)C)nn1Cc1ccc(C#N)cc1,,7,CLhep predicted [9]: 14.5 mL/min/kg; Fh [10]: 34%
CCc1ccc(Cn2nc(C(F)(F)F)c(NC(=O)c3cc(C(N)=O)nc4cc(F)ccc34)c2C)cc1,,,CLhep predicted [4]: 48.3 mL/min/kg; CLhep predicted [9]: 16.5 mL/min/kg

SMILES,IC50 [1] [nM],IC50 [2] [nM],also measured
Cc1nn(Cc2ccc(C#N)cc2)c(C)c1NC(=O)c1cc(C(N)=O)nc2cc(F)ccc12,,,CLhep predicted [4]: 16.7 mL/min/kg; CLhep predicted [9]: 7.5 mL/min/kg; CLhep predicted [7]: 11.2 mL/min/kg
Cc1c(NC(=O)c2cc(-c3ncnn3C)nc3ccccc23)c(C(F)(F)F)nn1Cc1ccc(C#N)cc1,,,CLhep predicted [4]: 31.7 mL/min/kg; CLhep predicted [7]: 35 mL/min/kg
Cc1c(NC(=O)c2cc(C(=O)NCCN3CCOCC3)nc3cc(F)ccc23)c(C(F)(F)F)nn1Cc1ccc(C#N)cc1,,340,
Cc1c(NC(=O)c2cc(C(N)=O)nc3cc(F)ccc23)c(C(F)(F)F)nn1Cc1ccccc1C#N,88,3,
Cc1cccc(Cn2nc(C(F)(F)F)c(NC(=O)c3cc(C(N)=O)nc4cc(F)ccc34)c2C)c1,610,11,
C=C1[C@@H](C)[C@H]2[C@H](Cc3ccccc3)NC(=O)[C@]23OC(=O)/C=C/[C@H](O)CCC[C@@H](C)C/C=C/[C@H]3[C@@H]1O [CYTOCHALASIN B],,,IC50 [8]: 2.8 µM
Cc1c(NC(=O)c2cc(C(N)=O)nc3cc(F)ccc23)c(C(F)(F)F)nn1Cc1ccc(OC(F)(F)F)cc1,370,5,
Cc1cc(C)c2nc(-c3ccco3)cc(C(=O)Nc3c(C)nn(Cc4ccc(F)cc4)c3C)c2c1,,,CLhep predicted [4]: 63.3 mL/min/kg
Cc1c(NC(=O)c2cc(C(N)=O)nc3cc(F)ccc23)c(C(F)(F)F)nn1Cc1cccc(C#N)c1,950,,
Cc1c(NC(=O)c2cc(C(N)=O)nc3cc(F)c(F)cc23)c(C(F)(F)F)nn1Cc1ccc(C#N)cc1,180,2,
Cc1nn(Cc2ccc(C#N)cc2F)c(C)c1NC(=O)c1cc(C(F)(F)F)nc2ccc(Br)cc12,870,8,
Cc1nn(Cc2ccc(C#N)cn2)c(C)c1NC(=O)c1cc(C(F)(F)F)nc2ccc(Br)cc12,,2,
Cc1ccc2nc(C)cc(C(=O)Nc3c(C)nn(Cc4ccc(F)cc4)c3C)c2c1,,,CLhep predicted [4]: 61.7 mL/min/kg; Fh [6]: 25%; CLhep predicted [9]: 20 mL/min/kg; Fh [10]: 11%
Cc1c(NC(=O)c2cc(C(N)=O)nc3ncccc23)c(C(F)(F)F)nn1Cc1ccc(C#N)cc1,1000,45,IC50 [3]: 300 nM
Cc1c(NC(=O)c2cc(C(N)=O)nc3cc(F)ccc23)c(C(F)(F)F)nn1Cc1cnc(C#N)cn1,16,5,CLhep predicted [4]: 20 mL/min/kg; Fh [5]: 72%; CLhep predicted [9]: 8.83 mL/min/kg; Fh [10]: 60%
Cc1c(NC(=O)c2cc(C(N)=O)nc3cc(F)cc(F)c23)c(C(F)(F)F)nn1Cc1ccc(C#N)cc1,16,1,IC50 [3]: 470 nM
Cc1nn(CC2CCOCC2)c(C)c1NC(=O)c1cc(C(F)(F)F)nc2ccc(Br)cc12,,,IC50 [8]: 8.5 µM
Cc1nc(C)c(-c2cc(C(=O)Nc3c(C(F)(F)F)nn(Cc4ccc(C#N)cc4)c3C)c3ccccc3n2)s1,910,760,
Cc1c(NC(=O)c2cc(C(N)=O)nc3cc(F)ccc23)c(C(F)(F)F)nn1Cc1ccc(C(F)(F)F)cc1,910,9,
Cc1c(NC(=O)c2ccnc(C(N)=O)c2)c(C(F)(F)F)nn1Cc1ccc(C#N)cc1,,200,

# Source: ChEMBL document CHEMBL5653626 (ChemMedChem, 2016)
